In patent US11685744B2, “CDK inhibitors and their use as pharmaceuticals” (Prelude Therapeutics, Incorporated, priority 2020, dated 2023):
pIC50: −log10 of the molar value.

Columns and labels:
[1] = system: MCF7 adenocarcinoma cell line; test: Cell proliferation studies in MCF7 cells (ATP-Lite, 10 days); assay type: cell-based; settings: Homo sapiens, 240 h, read-out: PROLIFERATION_CTG_MCF7 IC50
In short: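 Cells were seeded at 100 or 200 per well in DMEM with 10% FBS and dosed in quadruplicate over a 9-point 3-fold dilution. Incubation lasted 10 days at 37 °C, with media exchange and re-dosing on day 5. Viability was read by ATP-Lite luminescence and normalised to background and DMSO, giving IC50.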

CDK4/Cyclin D1 = CDK4/Cyclin D1 (Homo sapiens (Human), UniProt P11802); test: CDK4/CyclinD1 enzymatic activity assay (TR-FRET); assay type: biochemical; settings: ATP 2 mM, read-out: CDK4_D1 IC50
In short: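 Insect-cell CDK4/Cyclin D1 (1 nM) with ULight-4E-BP1 (100 nM) and 2 mM ATP in HEPES pH 7.4 buffer, preincubated 20 min with compound (9-dose, 3-fold dilutions); 10 mM MgCl2 started the reaction, run 60 min at 37 °C. EDTA/Eu-anti-phospho-4E-BP1 TR-FRET detection; IC50 from 4-parameter Hill fit.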

CDK6/Cyclin D1 = CDK6/Cyclin D1 (Homo sapiens (Human), UniProt Q00534); test: CDK6/CyclinD1 enzymatic activity assay (TR-FRET); assay type: biochemical; settings: ATP 250 μM, read-out: CDK6_D1 IC50
In short: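 Insect-cell-expressed CDK6/Cyclin D1 (1 nM) phosphorylated ULight-4E-BP1 (100 nM) with 250 μM ATP in HEPES pH 7.4 buffer. After 20 min compound preincubation, reactions were started with 10 mM MgCl2 and run 60 min at 37 °C. EDTA-quenched samples were read by TR-FRET with Eu-anti-P-4E-BP1; IC50 from 9-dose 4-parameter fits.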

[2] = Brain-to-plasma ratio (Kp) determination in Sprague-Dawley rats; settings: male, rat, po, 10 mg/kg
Experimental: The brain-to-plasma ratio (Kp) was determined in male Sprague-Dawley rats (7-9 weeks old) four hours after a single oral dose. Rats were acclimated and given free access to standard rodent chow and water throughout the entire study. Test articles were formulated as a solution at 0.3, 0.4, 0.5, or 1.0 mg/mL in a vehicle comprised of 10:15:75 (v:v:v) dimethylacetamide (DMA):Solutol HS15:water and delivered orally at a rate of 10 mL/kg to three rats to achieve final doses of 3, 4, 5, or 10 mg/kg, respectively. At 4 hours post-dose, blood samples were collected via jugular vein cannula into tubes containing K2EDTA as the anticoagulant and stored on ice. Blood samples were then centrifuged at 4° C. at 6000 rpm for 5 minutes, and the resulting plasma was placed into tubes and stored frozen at −80° C. until analysis. Whole brain samples were also collected at 4 hours post-dose. The weight of each brain was measured and recorded, and samples were immediately stored on dry ice. Brain samples were then transferred to storage at −80° C. until analysis.
Prior to analysis, brain samples were combined with water (4 mL/1 gram of brain) and homogenized. Prior to injection, plasma and brain homogenate samples and standards were prepared for analysis by precipitation with acetonitrile or 1:1 (v:v) methanol:acetonitrile. Samples were then thoroughly mixed, centrifuged at 4000 rpm for 15 minutes, and the resulting supernatant was transferred for analysis. Test article concentrations in plasma and brain homogenate were then determined by LC-MS/MS and quantified against calibration standards prepared to known concentrations in matched blank (analyte-free) biological matrix. The Kp was then determined by dividing the dilution-corrected brain concentration by the plasma concentration from each rat. A brain density of 1 gram/mL was assumed for all calculations.

[3] = brain (homogenate) versus plasma

Chain of CDK6/Cyclin D1 (Q00534 whole entry): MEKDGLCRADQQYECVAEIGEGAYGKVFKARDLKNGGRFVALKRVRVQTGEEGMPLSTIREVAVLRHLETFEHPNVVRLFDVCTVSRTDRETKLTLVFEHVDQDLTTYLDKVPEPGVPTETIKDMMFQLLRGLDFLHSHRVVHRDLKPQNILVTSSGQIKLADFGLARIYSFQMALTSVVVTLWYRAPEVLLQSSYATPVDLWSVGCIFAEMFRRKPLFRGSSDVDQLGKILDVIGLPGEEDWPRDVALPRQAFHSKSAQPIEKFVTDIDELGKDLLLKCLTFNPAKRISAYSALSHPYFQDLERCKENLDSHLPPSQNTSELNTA
Chain of CDK6/Cyclin D1 (P24385 whole entry partner): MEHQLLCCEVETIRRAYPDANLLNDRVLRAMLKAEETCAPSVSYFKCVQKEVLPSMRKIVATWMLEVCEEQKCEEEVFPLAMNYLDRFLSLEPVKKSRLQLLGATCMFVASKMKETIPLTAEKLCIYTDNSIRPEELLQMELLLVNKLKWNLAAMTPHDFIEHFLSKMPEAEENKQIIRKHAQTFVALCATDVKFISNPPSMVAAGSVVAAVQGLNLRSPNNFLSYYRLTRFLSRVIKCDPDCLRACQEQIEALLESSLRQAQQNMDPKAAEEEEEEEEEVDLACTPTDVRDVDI
Chain of CDK4/Cyclin D1 (P11802 whole entry): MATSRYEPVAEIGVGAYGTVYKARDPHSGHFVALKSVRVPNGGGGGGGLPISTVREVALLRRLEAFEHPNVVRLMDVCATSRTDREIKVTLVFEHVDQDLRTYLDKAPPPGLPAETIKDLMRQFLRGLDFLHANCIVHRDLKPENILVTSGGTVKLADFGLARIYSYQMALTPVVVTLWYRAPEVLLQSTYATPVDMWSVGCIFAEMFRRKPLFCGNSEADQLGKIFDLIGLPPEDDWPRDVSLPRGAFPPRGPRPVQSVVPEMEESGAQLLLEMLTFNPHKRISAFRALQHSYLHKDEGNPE
Chain of CDK4/Cyclin D1 (P24385 whole entry partner): as the sequence (P24385 whole entry partner) above

SMILES	pIC50 [1]	pIC50 (CDK4/Cyclin D1)	pIC50 (CDK6/Cyclin D1)	Kp at 4 h [2, 3]	Kp at 4 h ([2]; brain / plasma)
CCN1C2CC1CN(c1ccc(Nc3ncc(F)c(-c4cc5nc(C)n(C(C)C)c5s4)n3)nc1)C2 [Example 74, N-[5-(6-ethyl-3,6-Diazabicyclo[3.1.1]heptan-3-yl)pyridin-2-yl]-5-fluoro-4-(2-methyl-3-propan-2-ylthieno[2,3-d]imidazol-5-yl)pyrimidin-2-amine]	6.70 to 7.70	≥ 7.70	6.70 to 7.70	< 1	–
Cc1c(-c2nc(Nc3ccc(N4CC5(CCN(C)CC5)C4)cn3)ncc2F)sc2c(C(C)C)cn(C)c(=O)c12 [Example 77, 2-(5-Fluoro-2-((5-(7-methyl-2,7-diazaspiro[3.5]nonan-2-yl)pyridin-2-yl)amino)pyrimidin-4-yl)-7-isopropyl-3,5-dimethylthieno[3,2-c]pyridin-4(5H)-one]	6.70 to 7.70	≥ 7.70	≥ 7.70	1 to 3	–
Cc1c(-c2nc(Nc3ccc(N4C[C@H]5CN(C)C[C@H]5C4)cn3)ncc2F)sc2c(C(C)C)cn(C)c(=O)c12 [Example 78, 2-(5-Fluoro-2-((5-((3aR,6aS)-5-methylhexahydropyrrolo[3,4-c]pyrrol-2(1H)-yl)pyridin-2-yl)amino)pyrimidin-4-yl)-7-isopropyl-3,5-dimethylthieno[3,2-c]pyridin-4(5H)-one]	6.70 to 7.70	≥ 7.70	≥ 7.70	1 to 3	–
Cc1c(-c2nc(Nc3ccc(N4C[C@@H]5CN(C)C[C@H]5C4)cn3)ncc2F)sc2c(C(C)C)cn(C)c(=O)c12 [Example 79, 2-(5-Fluoro-2-((5-((3aS,6aS)-5-methylhexahydropyrrolo[3,4-c]pyrrol-2(1H)-yl)pyridin-2-yl)amino)pyrimidin-4-yl)-7-isopropyl-3,5-dimethylthieno[3,2-c]pyridin-4(5H)-one]	6.70 to 7.70	≥ 7.70	≥ 7.70	< 1	–
[2H]C([2H])([2H])N1CCC(c2ccc(Nc3ncc(F)c(-c4sc5c(C(C)C)cn(C)c(=O)c5c4C)n3)nc2)CC1 [Example 82, 2-(5-Fluoro-2-((5-(1-(methyl-d3)piperidin-4-yl)pyridin-2-yl)amino)pyrimidin-4-yl)-7-isopropyl-3,5-dimethylthieno[3,2-c]pyridin-4(5H)-one]	6.70 to 7.70	≥ 7.70	≥ 7.70	> 3	–
Cc1c(-c2nc(Nc3ccc(C4CCN(C5CCOC5)CC4)cn3)ncc2F)sc2c(C(C)C)cn(C)c(=O)c12 (stereo not drawn) [Example 84, 2-(5-Fluoro-2-((5-(1-(tetrahydrofuran-3-yl)piperidin-4-yl)pyridin-2-yl)amino)pyrimidin-4-yl)-7-isopropyl-3,5-dimethylthieno[3,2-c]pyridin-4(5H)-one]	6.70 to 7.70	≥ 7.70	≥ 7.70	1 to 3	–
CC(C)c1cn(C)c(=O)c2cc(-c3nc(Nc4ccc(C5CCN(C)CC5)cn4)ncc3F)sc12 [Example 86, 2-(5-Fluoro-2-((5-(1-methylpiperidin-4-yl)pyridin-2-yl)amino)pyrimidin-4-yl)-7-isopropyl-5-methylthieno[3,2-c]pyridin-4(5H)-one]	6.70 to 7.70	≥ 7.70	6.70 to 7.70	1 to 3	–
CCN1CCC(c2ccc(Nc3ncc(F)c(-c4sc5c(C(C)C)cn(C)c(=O)c5c4C)n3)nc2)CC1 [Example 87, 2-(2-((5-(1-Ethylpiperidin-4-yl)pyridin-2-yl)amino)-5-fluoropyrimidin-4-yl)-7-isopropyl-3,5-dimethylthieno[3,2-c]pyridin-4(5H)-one]	6.70 to 7.70	≥ 7.70	≥ 7.70	1 to 3	–
CCN1CC2(CC(c3ccc(Nc4ncc(F)c(-c5cc6nc(C)n(C(C)C)c6s5)n4)nc3)C2)C1 [Example 112, N-(5-(2-Ethyl-2-azaspiro[3.3]heptan-6-yl)pyridin-2-yl)-5-fluoro-4-(3-isopropyl-2-methyl-3H-thieno[2,3-d]imidazol-5-yl)pyrimidin-2-amine]	6.70 to 7.70	≥ 7.70	6.70 to 7.70	< 1	–

Next, values leading:

pIC50 [1]	pIC50 (CDK4/Cyclin D1)	pIC50 (CDK6/Cyclin D1)	Kp at 4 h [2, 3]	Kp at 4 h ([2]; brain / plasma)	SMILES
6.70 to 7.70	≥ 7.70	6.70 to 7.70	1 to 3	–	Cc1c(-c2nc(Nc3ccc(C4CCCN(C)C4)cn3)ncc2F)sc2c(C(C)C)cn(C)c(=O)c12 (stereo not drawn) [Example 88, 2-(5-Fluoro-2-((5-(1-methylpiperidin-3-yl)pyridin-2-yl)amino)pyrimidin-4-yl)-7-isopropyl-3,5-dimethylthieno[3,2-c]pyridin-4(5H)-one]
6.70 to 7.70	≥ 7.70	≥ 7.70	> 3	–	Cc1c(-c2nc(Nc3ccc(N4CCN(C(C)C)CC4)cn3)ncc2F)sc2c(C(C)C)cn(C)c(=O)c12 [Example 89, 2-(5-Fluoro-2-((5-(4-isopropylpiperazin-1-yl)pyridin-2-yl)amino)pyrimidin-4-yl)-7-isopropyl-3,5-dimethylthieno[3,2-c]pyridin-4(5H)-one]
6.70 to 7.70	≥ 7.70	6.70 to 7.70	< 1	–	CCN1CCN(Cc2ccc(Nc3ncc(F)c(-c4sc5c(C(C)C)cn(C)c(=O)c5c4C)n3)nc2)CC1 [Example 90, 2-(2-((5-((4-Ethylpiperazin-1-yl)methyl)pyridin-2-yl)amino)-5-fluoropyrimidin-4-yl)-7-isopropyl-3,5-dimethylthieno[3,2-c]pyridin-4(5H)-one]
6.70 to 7.70	≥ 7.70	≥ 7.70	< 1	–	Cc1c(-c2nc(Nc3ccc(N4CCC5(CC4)CN(C)C5)cn3)ncc2F)sc2c(C(C)C)cn(C)c(=O)c12 [Example 91, 2-(5-Fluoro-2-((5-(2-methyl-2,7-diazaspiro[3.5]nonan-7-yl)pyridin-2-yl)amino)pyrimidin-4-yl)-7-isopropyl-3,5-dimethylthieno[3,2-c]pyridin-4(5H)-one]
6.70 to 7.70	≥ 7.70	6.70 to 7.70	< 1	–	Cc1c(-c2nc(Nc3ccc(C4CCN(C)CC4)nn3)ncc2F)sc2c(C(C)C)cn(C)c(=O)c12 [Example 93, 2-(5-Fluoro-2-((6-(1-methylpiperidin-4-yl)pyridazin-3-yl)amino)pyrimidin-4-yl)-7-isopropyl-3,5-dimethylthieno[3,2-c]pyridin-4(5H)-one]
6.70 to 7.70	≥ 7.70	6.70 to 7.70	1 to 3	–	Cc1c(-c2nc(Nc3ccc(C4CCN(C(C)C)C4)cn3)ncc2F)sc2c(C(C)C)cn(C)c(=O)c12 (stereo not drawn) [Example 95, 2-(5-Fluoro-2-((5-(1-isopropylpyrrolidin-3-yl)pyridin-2-yl)amino)pyrimidin-4-yl)-7-isopropyl-3,5-dimethylthieno[3,2-c]pyridin-4(5H)-one]
≥ 7.70	≥ 7.70	≥ 7.70	< 1	–	Cc1cnc(Nc2ccc(C3CCN(C)CC3)cn2)nc1-c1cc2c(=O)n(C)cc(C(C)C)c2s1 [Example 97, 7-Isopropyl-5-methyl-2-(5-methyl-2-((5-(1-methylpiperidin-4-yl)pyridin-2-yl)amino)pyrimidin-4-yl)thieno[3,2-c]pyridin-4(5H)-one]
6.70 to 7.70	≥ 7.70	6.70 to 7.70	> 3	–	CC(C)c1c2sc(-c3nc(Nc4ccc(C5CCN(C)CC5)cn4)ncc3F)cc2nn1C [Example 99, 5-Fluoro-4-(3-isopropyl-2-methyl-2H-thieno[3,2-c]pyrazol-5-yl)-N-(5-(1-methylpiperidin-4-yl)pyridin-2-yl)pyrimidin-2-amine]
6.70 to 7.70	≥ 7.70	≥ 7.70	1 to 3	–	CCN1CCN(c2ccc(Nc3ncc(F)c(-c4sc5c(C(C)(O)C(F)(F)F)n(C)nc5c4C)n3)nc2)CC1 (stereo not drawn) [Example 102, 2-(5-(2-((5-(4-Ethylpiperazin-1-yl)pyridin-2-yl)amino)-5-fluoropyrimidin-4-yl)-2,6-dimethyl-2H-thieno[3,2-c]pyrazol-3-yl)-1,1,1-trifluoropropan-2-ol]
6.70 to 7.70	≥ 7.70	6.70 to 7.70	–	1 to 3	Cc1nc2cc(-c3nc(Nc4ccc(OC5CCN(C)C5)cn4)ncc3F)sc2n1C(C)C (stereo not drawn) [Example 114, 5-Fluoro-4-(2-methyl-3-propan-2-ylthieno[2,3-d]imidazol-5-yl)-N-[5-(1-methylpyrrolidin-3-yl)oxypyridin-2-yl]pyrimidin-2-amine]
6.70 to 7.70	≥ 7.70	≥ 7.70	1 to 3	–	Cc1nc2cc(-c3nc(Nc4ccc(C5CCN(C)CC5)cn4)ncc3C(F)(F)F)sc2n1C(C)C [Example 120, 4-(3-Isopropyl-2-methyl-3H-thieno[2,3-d]imidazol-5-yl)-N-(5-(1-methylpiperidin-4-yl)pyridin-2-yl)-5-(trifluoromethyl)pyrimidin-2-amine]
6.70 to 7.70	≥ 7.70	6.70 to 7.70	> 3	–	Cc1c(-c2nc(Nc3ccc(C4CCN(C)CC4)cn3)ncc2F)sc2c(C(C)C)cncc12 [Example 123, 5-Fluoro-N-[5-(1-methylpiperidin-4-yl)pyridin-2-yl]-4-(3-methyl-7-propan-2-ylthieno[3,2-c]pyridin-2-yl)pyrimidin-2-amine]
